In patent US8708045B2, “Multifunctional boronic acid crosslinking agents and associated methods” (Halliburton Energy Services, Inc., priority 2010, dated 2014):

Assay: Visual solubility of 4-vinylphenyl boronic acid with sorbitol as solubilizing agent
Format: physicochemical
Protocol: In this example, sorbitol was used as an illustrative solubilizing agent to improve the solubility of 4-vinylphenyl boronic acid. A stock solution of 20 g of sorbitol in 200 mL of deionized water was prepared to give a sorbitol concentration of 0.55 M. In several plastic sealable containers was placed 11-15 mg of the boronic acid (maximum of 0.1 mmol in each container), and a variety of solutions were added to the containers, sometimes with pH adjustment. Thereafter, the containers were vortex mixed for 5 minutes, and solubility was analyzed visually.

- Soluble? (Sample # 1: 10 mL deionized H2O, 11-15 mg boronic acid, vortex 5 minutes, visual): no
- Soluble? (Sample # 2: 10 mL stock sorbitol (0.55 M)): yes
- Soluble? (Sample # 3: 10 mL stock sorbitol, pH = 14): yes
- Soluble? (Sample # 4: 200 μL stock sorbitol, 5 mL deionized H2O): no
- Soluble? (Sample # 5: 5 mL deionized H2O, pH = 12.3): yes
- Soluble? (Sample # 6: 1 mL stock sorbitol, 5 mL deionized H2O): no
- Soluble? (Sample # 7: 2 mL stock sorbitol, 6 mL deionized H2O): no
- Soluble? (Sample # 8: 200 μL stock sorbitol, 5 mL deionized H2O, pH = 10.6): no
- Soluble? (Sample # 9: 2 mL stock sorbitol, 6 mL deionized H2O, pH = 11.0): yes
- Soluble? (Sample # 10: 2 mL stock sorbitol, 10 mL deionized H2O, pH = 10.4): yes
- Soluble? (Sample # 11: 10 mL deionized H2O, pH = 9.8): no
- Soluble? (Sample # 12: 2 mL stock sorbitol, 10 mL deionized H2O, pH = 9.2): no
- Soluble? (Sample # 13: 2 mL stock sorbitol, 10 mL deionized H2O, pH = 9.4): yes
SMILES: C=Cc1ccc(B(O)O)cc1 [4-vinylphenyl boronic acid]
